# Legend:
# Male Balb/c mice = experiment: Intraperitoneal glucose tolerance test (ipGTT); assay type: in vivo; set-up: key to Effect on blood glucose, statistical significance compared to vehicle during ipGTT: *P < 0.05; **P < 0.01; ****P < 0.0001; ns: not significant
# Source text: To examine the ability of the compound of Example 1 to activate GPR-40 in-vivo resulting in anti-diabetic efficacy, i.e. reduction in plasma glucose levels, an intraperitoneal glucose tolerance test (ipGTT) study is completed, and the data is shown for the compound of Example 1, below in Table 7.
# Male Balb/c (Albino mice) mice (8-9 weeks of age) are single housed, and fed with normal rodent chow diet and water ad libitum. Animals are weighed; randomized by body weight; and their daily body weights are recorded. On the night before the study, animals are fasted overnight. In the morning, animals are dosed orally with compound of Example 1 or vehicle alone 60 minutes prior to the glucose tolerance test (glucose 2 g/kg, i.p.). Blood glucose levels are determined from tail bleeds taken at 0, 3, 7, 15, 30, and 60 min after glucose challenge. […] Percent lowering in glucose is calculated from the AUC data of the compound with respect to the AUC of vehicle group. The compound of Example 1 is orally administered at 0.1, 0.3, 1.0, 3.0, 10, or 30 mg/kg, and a positive control (3-[4-(2-methyl-benzyloxy)-phenyl]-hex-4-ynoic acid) is administered at 10 mg/kg.
# hGPR-40 (hFFAR1) = target: T1, hGPR-40 (hFFAR1) (Homo sapiens, UniProt O14842); experiment: Human beta-arrestin agonist assay with 1% FBS; assay type: cell-based
# T1 construct: host or cells: HEK293
# Source text: (§1) Human embryonic kidney (hEK293)-hFFAR1 cells are purchased from DiscoveRx™. Human osteosarcoma (U2OS) cells expressing mFFAR1 are developed by DiscoveRX™. These cells co-express the Prolink™ (PK)-tagged GPR-40 and the Enzyme Acceptor™ (EA)-tagged beta-arrestin fusion proteins. If activation of the GPR-40 stimulates beta-arrestin recruitment, it would force complementation of the beta galactosidase (B-gal) enzyme fragments, forming a B-gal enzyme that generates a chemiluminescent signal using the DiscoveRx PathHunter™ detection kit. Cells are incubated overnight at 5,000 cells/well in 384 well plates in culture media containing 1% FBS (fetal bovine serum). Serial diluted compound in DMSO (2× dilutions to generate 20 concentrations) are step down diluted in culture media containing 1% FBS (fetal bovine serum) and added to cells with a final top concentration starting of 100 μM. After addition of compound, cells are incubated for 90 min at 37° C. in 5% CO2 incubator, and DiscoveRX™ kit detection reagents are added. Measurement of the chemiluminescent signal is ascertained with the Envision™ reader, after a 1-hour incubation at room temperature. Data are fit to a 4 parameter-fit logistics to determine EC50 values, % activity is measured versus maximum response to an internal standard GPR-40 agonist at 1 μM.
# mGPR-40 (mFFAR1) = target: T2, mGPR-40 (mFFAR1) (Mus musculus, UniProt Q76JU9); experiment: Mouse beta-arrestin agonist assay with 1% FBS; assay type: cell-based
# T2 construct: host or cells: U2OS
# Source text: as §1
# [1] = versus internal standard GPR-40 agonist at 1 μM
# T1 sequence (O14842 whole entry): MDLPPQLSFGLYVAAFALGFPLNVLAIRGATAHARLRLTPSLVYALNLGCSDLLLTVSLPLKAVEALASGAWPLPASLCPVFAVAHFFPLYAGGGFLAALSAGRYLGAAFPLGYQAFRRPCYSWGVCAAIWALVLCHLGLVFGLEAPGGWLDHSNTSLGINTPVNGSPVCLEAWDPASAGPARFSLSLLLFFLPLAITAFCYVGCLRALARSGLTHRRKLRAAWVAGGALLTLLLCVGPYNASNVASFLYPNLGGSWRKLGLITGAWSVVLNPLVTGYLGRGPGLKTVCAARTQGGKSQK
# T1 sequence (P32121 whole entry partner): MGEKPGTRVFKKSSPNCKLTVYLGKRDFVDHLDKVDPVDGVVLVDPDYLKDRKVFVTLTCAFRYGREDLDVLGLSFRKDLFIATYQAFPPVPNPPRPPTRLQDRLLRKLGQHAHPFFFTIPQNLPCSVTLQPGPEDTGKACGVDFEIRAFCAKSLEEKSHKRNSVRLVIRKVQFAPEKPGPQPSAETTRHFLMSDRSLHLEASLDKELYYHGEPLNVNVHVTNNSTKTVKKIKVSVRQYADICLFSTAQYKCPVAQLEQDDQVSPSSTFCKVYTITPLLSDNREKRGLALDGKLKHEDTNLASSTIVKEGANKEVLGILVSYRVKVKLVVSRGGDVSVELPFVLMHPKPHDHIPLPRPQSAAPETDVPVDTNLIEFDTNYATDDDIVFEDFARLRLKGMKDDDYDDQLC
# T2 sequence (Q76JU9 whole entry): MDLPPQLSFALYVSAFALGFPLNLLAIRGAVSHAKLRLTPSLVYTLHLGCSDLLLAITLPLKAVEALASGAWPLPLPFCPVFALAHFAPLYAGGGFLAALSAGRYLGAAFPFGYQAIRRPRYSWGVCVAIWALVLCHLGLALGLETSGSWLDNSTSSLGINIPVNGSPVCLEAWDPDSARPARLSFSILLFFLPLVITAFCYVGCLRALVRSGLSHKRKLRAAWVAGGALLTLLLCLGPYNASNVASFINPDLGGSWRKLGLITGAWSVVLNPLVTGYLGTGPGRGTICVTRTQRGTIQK
# T2 sequence (P32121 whole entry partner): as the sequence (P32121 whole entry partner) above
compound,measurement,setting,value
"CC#C[C@@H](CC(=O)O)c1ccc(OCc2ccc3nc(-c4c(C)cccc4C)nn3c2)cc1 [Example 1, (3S)-3-[4-[[2-(2,6-Dimethylphenyl)-[1,2,4]triazolo[1,5-a]pyridin-6-yl]methoxy]phenyl]hex-4-ynoic acid]",glucose levels at the 15 minute time point,"Male Balb/c mice; 30 mg/kg dose, oral",significantly lowered
same,glucose levels at the 3 or 7 minute time points,"Male Balb/c mice; Example 1 0.1-30 mg/kg oral, positive control 10 mg/kg",No concentration of compound of Example 1 or the positive control significantly lowered
same,glucose levels at the 30 minute time point,"Male Balb/c mice; Example 1 1.0, 10 and 30 mg/kg doses, positive control 10 mg/kg",significantly lowered
same,glucose levels at the 60 minute time point,"Male Balb/c mice; Example 1 3.0, 10 and 30 mg/kg doses, positive control 10 mg/kg",significantly lowered
same,ED50,"Male Balb/c mice; Mus musculus, oral, 60 minutes prior to glucose 2 g/kg i.p., read-out: ED50 based on AUCs for glucose lowering",7.6 mg/kg
same,"Effect on blood glucose, statistical significance compared to vehicle during ipGTT","Male Balb/c mice; dose 0.1 mpk oral, time 0 min",Ns
same,"Effect on blood glucose, statistical significance compared to vehicle during ipGTT","Male Balb/c mice; dose 0.1 mpk oral, time 3 min",ns
same,"Effect on blood glucose, statistical significance compared to vehicle during ipGTT","Male Balb/c mice; dose 0.1 mpk oral, time 7 min",ns
same,"Effect on blood glucose, statistical significance compared to vehicle during ipGTT","Male Balb/c mice; dose 0.1 mpk oral, time 15 min",Ns
same,"Effect on blood glucose, statistical significance compared to vehicle during ipGTT","Male Balb/c mice; dose 0.1 mpk oral, time 30 min",ns
same,"Effect on blood glucose, statistical significance compared to vehicle during ipGTT","Male Balb/c mice; dose 0.1 mpk oral, time 60 min",ns
same,"Effect on blood glucose, statistical significance compared to vehicle during ipGTT","Male Balb/c mice; dose 0.3 mpk oral, time 0 min",Ns
same,"Effect on blood glucose, statistical significance compared to vehicle during ipGTT","Male Balb/c mice; dose 0.3 mpk oral, time 3 min",ns
same,"Effect on blood glucose, statistical significance compared to vehicle during ipGTT","Male Balb/c mice; dose 0.3 mpk oral, time 7 min",ns
same,"Effect on blood glucose, statistical significance compared to vehicle during ipGTT","Male Balb/c mice; dose 0.3 mpk oral, time 15 min",ns
same,"Effect on blood glucose, statistical significance compared to vehicle during ipGTT","Male Balb/c mice; dose 0.3 mpk oral, time 30 min",ns
same,"Effect on blood glucose, statistical significance compared to vehicle during ipGTT","Male Balb/c mice; dose 0.3 mpk oral, time 60 min",ns
same,"Effect on blood glucose, statistical significance compared to vehicle during ipGTT","Male Balb/c mice; dose 1 mpk oral, time 0 min",Ns
same,"Effect on blood glucose, statistical significance compared to vehicle during ipGTT","Male Balb/c mice; dose 1 mpk oral, time 3 min",ns
same,"Effect on blood glucose, statistical significance compared to vehicle during ipGTT","Male Balb/c mice; dose 1 mpk oral, time 7 min",ns
same,"Effect on blood glucose, statistical significance compared to vehicle during ipGTT","Male Balb/c mice; dose 1 mpk oral, time 15 min",ns
same,"Effect on blood glucose, statistical significance compared to vehicle during ipGTT","Male Balb/c mice; dose 1 mpk oral, time 30 min",* (*P < 0.05)
same,"Effect on blood glucose, statistical significance compared to vehicle during ipGTT","Male Balb/c mice; dose 1 mpk oral, time 60 min",ns
same,"Effect on blood glucose, statistical significance compared to vehicle during ipGTT","Male Balb/c mice; dose 3 mpk oral, time 0 min",Ns
same,"Effect on blood glucose, statistical significance compared to vehicle during ipGTT","Male Balb/c mice; dose 3 mpk oral, time 3 min",ns
same,"Effect on blood glucose, statistical significance compared to vehicle during ipGTT","Male Balb/c mice; dose 3 mpk oral, time 7 min",ns
same,"Effect on blood glucose, statistical significance compared to vehicle during ipGTT","Male Balb/c mice; dose 3 mpk oral, time 15 min",ns
same,"Effect on blood glucose, statistical significance compared to vehicle during ipGTT","Male Balb/c mice; dose 3 mpk oral, time 30 min",ns
same,"Effect on blood glucose, statistical significance compared to vehicle during ipGTT","Male Balb/c mice; dose 3 mpk oral, time 60 min",** (**P < 0.01)
same,"Effect on blood glucose, statistical significance compared to vehicle during ipGTT","Male Balb/c mice; dose 10 mpk oral, time 0 min",Ns
same,"Effect on blood glucose, statistical significance compared to vehicle during ipGTT","Male Balb/c mice; dose 10 mpk oral, time 3 min",ns
same,"Effect on blood glucose, statistical significance compared to vehicle during ipGTT","Male Balb/c mice; dose 10 mpk oral, time 7 min",ns
same,"Effect on blood glucose, statistical significance compared to vehicle during ipGTT","Male Balb/c mice; dose 10 mpk oral, time 15 min",ns
same,"Effect on blood glucose, statistical significance compared to vehicle during ipGTT","Male Balb/c mice; dose 10 mpk oral, time 30 min",**** (****P < 0.0001)
same,"Effect on blood glucose, statistical significance compared to vehicle during ipGTT","Male Balb/c mice; dose 10 mpk oral, time 60 min",**** (****P < 0.0001)
same,"Effect on blood glucose, statistical significance compared to vehicle during ipGTT","Male Balb/c mice; dose 30 mpk oral, time 0 min",Ns
same,"Effect on blood glucose, statistical significance compared to vehicle during ipGTT","Male Balb/c mice; dose 30 mpk oral, time 3 min",ns
same,"Effect on blood glucose, statistical significance compared to vehicle during ipGTT","Male Balb/c mice; dose 30 mpk oral, time 7 min",ns
same,"Effect on blood glucose, statistical significance compared to vehicle during ipGTT","Male Balb/c mice; dose 30 mpk oral, time 15 min",** (**P < 0.01)
same,"Effect on blood glucose, statistical significance compared to vehicle during ipGTT","Male Balb/c mice; dose 30 mpk oral, time 30 min",**** (****P < 0.0001)
same,"Effect on blood glucose, statistical significance compared to vehicle during ipGTT","Male Balb/c mice; dose 30 mpk oral, time 60 min",**** (****P < 0.0001)
same,EC50,"hGPR-40 (hFFAR1); hEK293-hFFAR1 cells, 1% FBS, 90 min, read-out: hGPR-40 b-arrestin EC50",44.8 nM
same,hGPR-40 b-arrestin % stimulation max (FA),hGPR-40 (hFFAR1); [1],128%
same,EC50,"mGPR-40 (mFFAR1); U2OS cells expressing mFFAR1, 1% FBS, 90 min, read-out: mGPR-40 b-arrestin EC50",3.63 nM
same,mGPR-40 b-arrestin % stimulation max (FA),mGPR-40 (mFFAR1); [1],153%

# — patent US9120793B2, “Triazolo-pyridine compound” (Eli Lilly and Company, priority 2013, dated 2015)
